This passage reports IC50 results from patent publication US4336397A, “2,4-Dioxo-4-substituted-1-butanoic acid derivatives useful in treating urinary tract calcium oxalate lithiasis” (Merck & Co., Inc., priority 1980, dated 1982).

This assay addresses T1, pig liver glycolate oxidase (Sus scrofa, UniProt I3LVF1).
T1 construct: The enzyme was pig liver glycolate oxidase; from tissue; host or cells: pig liver
T1 sequence (I3LVF1 1-370): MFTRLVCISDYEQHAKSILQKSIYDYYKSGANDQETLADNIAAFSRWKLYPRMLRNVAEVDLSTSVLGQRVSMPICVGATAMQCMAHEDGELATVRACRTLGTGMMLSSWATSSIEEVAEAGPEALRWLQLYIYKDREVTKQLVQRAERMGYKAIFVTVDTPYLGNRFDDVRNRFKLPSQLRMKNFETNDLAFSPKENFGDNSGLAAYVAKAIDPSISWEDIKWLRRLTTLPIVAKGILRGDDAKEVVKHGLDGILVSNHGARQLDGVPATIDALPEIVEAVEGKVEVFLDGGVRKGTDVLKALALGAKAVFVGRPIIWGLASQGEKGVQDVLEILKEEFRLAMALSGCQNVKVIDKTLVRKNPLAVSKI
Kind of assay: Glycolate Oxidase Enzyme Inhibition. The format is biochemical. The following applies: 25° C., 0.10 M phosphate buffer, pH 7.0, 3 mM EDTA; 2×10^-4 M sodium glycolate; initial rates 1 to 3 minutes, 600 nm. The method, then: The usefulness of the compounds of the present invention in treating urinary tract, especially renal, calcium oxalate lithiasis, is shown by the ability of those compounds to inhibit the glycolate oxidase enzyme. […] The activity of the enzyme, in turn, was measured by following the rate of reduction of sodium 2,6-dichlorophenyl-indophenol by sodium glycolate in the presence of the enzyme. The enzyme was pig liver glycolate oxidase. The reaction was followed spectrophotometrically at 600 nm. The assay was conducted at 25° C. in a 0.10 M phosphate buffer, pH 7.0, containing 3 mM EDTA. Initial substrate concentrations were 5×10^-5 M of […] and 2×10^-4 M of sodium glycolate. Reactions were initiated by the addition of enzyme. Initial rates during the period from 1 to 3 minutes after the addition of enzyme were recorded on a Beckman Acta M-VI spectrophotometer. One control was run simultaneously with three reactions, and all initial rates were adjusted to a common control rate. For further details of this procedure, see Randall et al., J. Med. Chem., 22, 6,612 (1979).

`O=C(O)C(=O)CC(=O)c1ccc(C2CCCc3ccccc32)cc1` (centres unmarked) [4-[4-(1,2,3,4-tetrahydro-1-naphthalenyl)phenyl]-2,4-dioxo-1-butanoic acid] had an IC50 of 2100 nM.

Take `O=C(O)C(=O)CC(=O)c1ccc(Cc2ccc(Cl)c(Cl)c2)cc1` [4-[4-(3,4-dichlorophenylmethyl)phenyl]-2,4-dioxo-1-butanoic acid]: half-maximal inhibition (IC50) required 460 nM. For `O=C(O)C(=O)CC(=O)c1ccc(-c2ccc(Br)cc2)cc1` [4-[(4'-bromo-1,1'-biphenyl)-4-yl]-2,4-dioxo-1-butanoic acid] the value was 70 nM; for `CCCCCCCCCc1ccc(C(=O)CC(=O)C(=O)O)cc1` [2,4-dioxo-4-(4-nonylphenyl)-1-butanoic acid], 670 nM; for `O=C(O)C(=O)CC(=O)c1ccc(C2CCCCC2)cc1` [4-(4-cyclohexylphenyl)-2,4-dioxo-1-butanoic acid], 2500 nM.

For orientation: IC50 means the concentration that gives 50% inhibition. Low readings indicate higher potency, high ones lower potency.
